# Data taken from PubChem BioAssay (NCI).
#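 These data come from cells grown in 96-well plates and exposed to compound for 48 hours at five concentrations. GI50 is the concentration that inhibits growth by half. TGI: concentration producing complete growth inhibition.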
# Experiments:
# Assay in all cases: growth of human tumour cells (NCI), 48 h
# HT29 colon = tested on: HT29 colon
# UACC-257 melanoma = tested on: UACC-257 melanoma
# NCI/ADR-RES ovarian = tested on: NCI/ADR-RES ovarian
# IGROV1 ovarian = tested on: IGROV1 ovarian
# SK-MEL-28 melanoma = tested on: SK-MEL-28 melanoma
# HS 578T breast = tested on: HS 578T breast
# UO-31 renal = tested on: UO-31 renal
# UACC-62 melanoma = tested on: UACC-62 melanoma
# OVCAR-4 ovarian = tested on: OVCAR-4 ovarian
# SNB-19 CNS = tested on: SNB-19 CNS
SMILES,TGI (HT29 colon) [µM],TGI (UACC-257 melanoma) [µM],TGI (NCI/ADR-RES ovarian) [µM],TGI (IGROV1 ovarian) [µM],TGI (SK-MEL-28 melanoma) [µM],TGI (HS 578T breast) [µM],TGI (UO-31 renal) [µM],TGI (UACC-62 melanoma) [µM],TGI (OVCAR-4 ovarian) [µM],TGI (SNB-19 CNS) [µM],GI50 (HT29 colon) [µM],GI50 (UACC-257 melanoma) [µM],GI50 (NCI/ADR-RES ovarian) [µM],GI50 (IGROV1 ovarian) [µM],GI50 (SK-MEL-28 melanoma) [µM],GI50 (HS 578T breast) [µM],GI50 (UO-31 renal) [µM],GI50 (UACC-62 melanoma) [µM],GI50 (OVCAR-4 ovarian) [µM],GI50 (SNB-19 CNS) [µM]
CCN(CC)N=Nc1c(C(N)=O)n[nH]c1C,> 100,> 100,> 100,> 100,> 100,> 100,> 100,> 100,> 100,> 100,,,,,,,,,,
COC([CH2][Hg][n]1cnc2c1c(=O)n(C)c(=O)n2C)CN1C(=O)c2ccccc2S1(=O)=O (centres undefined),> 100,> 100,> 100,> 100,> 100,> 100,> 100,> 100,> 100,> 100,> 100,> 100,> 100,> 100,> 100,> 100,> 100,> 100,> 100,> 100
C=C(C)C(OC)C(O)CC1(C)CC(O)CC(C)(C2CCC3OC(C4(C)CCC(Br)C(C)(C)O4)CCC3(C)O2)O1 (centres undefined),> 78.9,43,39.6,> 57.1,50,52.9,34.4,39.5,44.2,39,30.3,20.2,18.3,24,23.6,23.9,15.7,19,23.1,3.28
CCOC(=O)Cn1c(C(F)(F)F)nc2nc(Cl)c(Cl)nc21,> 100,53.4,> 100,> 76.6,> 100,87.2,10.9,> 78.4,30.2,> 96.2,,,,,,,,,,
Fc1[nH]nc2ccc([C@@H]3Nc4ccc5[nH]ncc5c4[C@H]4C5CCC(C5)[C@@H]34)cc12 (some centres undefined),12.8,23.9,8.99,16,16.2,13.6,14.1,13.2,17.8,18.1,0.439,10.4,0.576,0.86,1.54,1.4,2.83,0.849,4.51,1.22
CC(C)=CCC\C(C)=C/C=C/C(C)=C\C=C\C(C)=C/C=C/C=C(C)\C=C\C=C(C)/C=C/C=C(/C)CCC=C(C)C,> 100,> 100,> 100,> 100,> 100,> 100,> 100,> 100,> 100,> 100,,,,,,,,,,
Cc1ccnc2c1ccc1c(C)ccnc12,12.6,7.6,1.79,13.6,14.2,> 100,2.91,1.03,4.23,13.9,0.491,0.508,0.204,0.471,0.491,3.95,0.246,0.288,0.316,0.592
OCc1cc2ccccc2c2c3c(ccc12)OCO3,78.6,82.3,126,111,350,144,108,74.2,603,286,27.5,28.1,29.6,33.6,35.3,29.8,26.3,21.5,30.6,35.6
OC1CSSC1Cn1cnc2c(Nc3ccc(OCc4cccc(F)c4)c(Cl)c3)ncnc21 (centres undefined),3.91,15.4,12.3,13.6,4.64,15,6.55,2.71,8.53,7.22,0.744,4.09,3.26,4.46,0.591,5.28,1.45,0.971,1.27,2.14
Cc1nc2sccn2c1-c1csc(Nc2ccccc2Cl)n1,13.6,17.9,14.5,50,> 100,> 100,33.6,23.3,83.5,> 100,3.08,3.69,2.61,5.45,6.24,6.92,3.21,3.05,2.35,10.3
CN(C)c1ccc(/C=C\C2=[N+](C)c3ccccc3C2(C)C)cc1,,> 31.2,> 61.6,> 50.1,21.5,8.68,> 100,19.9,> 59.4,38.1,0.309,1.5,10.6,0.458,0.51,0.305,3.74,1.49,0.981,0.775
O=C(Nc1ccc(-n2ccc3c(NC(=O)c4ccccc4)nccc32)cc1)c1ccc(Cl)c(C(F)(F)F)c1,6.31,27.2,15.2,15.3,14.1,20,> 50,9.79,8.55,13.1,0.183,6.73,0.96,1.55,4.99,4.88,2.86,0.576,1.61,1.18
